Results taken from article PMC4476725 (PLoS Pathogens, 2015).
Like-named read-outs stand apart in the source and are kept apart here.

Assays:
[1] = target: RSV RNP complex (Human respiratory syncytial virus A, UniProt P28887); assay: biochemical; type: biochemical
[2] = target: QUAD RNP complex (Human respiratory syncytial virus A, UniProt P28887, A789V/I796V/L795I/M628L); type: biochemical
[3] = target: PIV-1 polymerase (Human respirovirus 1, UniProt Q8QT26); assay: biochemical; settings: Parainfluenza virus type-1 polymerase
[4] = target: IAV polymerase (Influenza A virus, UniProt P03431); assay: IAV polymerase gel-based assay; type: biochemical
[5] = target: HCV polymerase (Hepatitis C virus genotype 1b, UniProt Q9WMX2); assay: HCV polymerase inhibition assay; type: biochemical
[6] = target: T1, wild-type RSV L-P RNA polymerase complex (Human respiratory syncytial virus A, UniProt P28887); type: biochemical; settings: Fig 5A
T1 construct: made in house; host or cells: insect cells

[7] = target: RSV polymerase QUAD mutant (Human respiratory syncytial virus A, UniProt P28887, A789V/I796V/L795I/M628L); assay: Single nucleotide incorporation by recombinant RSV L-P polymerase, QUAD mutant; type: biochemical; settings: recombinant L-P enzymes
[8] = target: human mitochondrial RNA polymerase (Homo sapiens, UniProt O00411); assay: DdRp assay with human mitochondrial RNA polymerase, single turnover; type: biochemical; settings: 100 μM of each NTP

Nc1ccn([C@@H]2O[C@](CCl)(COP(=O)(O)OP(=O)(O)OP(=O)(O)O)[C@@H](O)[C@H]2F)c(=O)n1 [ALS-8112-TP, 2'-Fluoro-4'-Chloromethyl-Cytidine Triphosphate]
inhibition of RSV RNP complex (in words) ([1]; Fig 5B): efficiently inhibit RSV | mode of inhibition of RSV RNP complex ([1]; NTP competition, 1 or 100 μM NTP, 30 μM inhibitor): competitive inhibitor of cytidine monophosphate (CMP) incorporation | viral RNA transcription activity inhibited (in words) ([1]; crude RNP complex from virus-infected cells): inhibited | inhibition of RdRp activity of the QUAD RNP complex [2]: 57% | loss in inhibition potency compared to the wild-type protein [2]: 145 fold | IC50 [3]: 2.3 µM | IC50 ([4]; Influenza virus polymerase, based on a single 100 μM concentration): > 100 µM | inhibition at 100 µM ([4]; at 100 μM): 20.5% | inhibition of HCV polymerase (in words) ([5]; Fig 5B): not HCV polymerase | IC50 ([5]; Hepatitis C virus polymerase, read-out: IC50): > 33 µM | IC50 ([5]; second symbol of RSV / HCV, read-out: HCV polymerase inhibition class (IC50)): > 10 µM | substrate and chain termination profile with recombinant RSV polymerase (in words) [6]: both substrates and chain terminators | increase in discrimination, QUAD vs WT (resistance level) [7]: 4.6 fold | recognition as substrate by human mitochondrial RNA polymerase (in words) [8]: not recognized as a substrate
